Laboratory results published in ChEMBL document CHEMBL6109177, “AI-Driven De Novo Design and Development of Nontoxic DYRK1A Inhibitors” (J Med Chem, 2025).
Active and inactive are the calls of the source. No cut-off for these calls is given here.

Columns and labels:
BV-2 [1] = experiment: Anti-inflammatory activity in mouse BV-2 cells assessed as reduction in LPS-induced NO production at 10 uM pretreated with LPS for 24 hrs followed by compound addition and measured after 24 hrs by Griess reagent based analysis; format: functional, cell-based
BV-2 [2] = experiment: Cytotoxicity against mouse BV-2 cells assessed as cell viability up to 10 uM by MTT assay; format: toxicity, cell-based; settings: bv-2, 10 µM
BV-2 [3] = experiment: Cytotoxicity against mouse BV-2 cells assessed as cell viability at 10 uM by MTT assay; format: toxicity, cell-based; settings: bv-2, 10 µM
BV-2 [4] = experiment: Anti-inflammatory activity in mouse BV-2 cells assessed as reduction in LPS-induced NO production at 5 uM pretreated with LPS for 24 hrs followed by compound addition and measured after 24 hrs by Griess reagent based analysis; format: functional, cell-based
BV-2 [5] = experiment: Anti-inflammatory activity in mouse BV-2 cells assessed as reduction in LPS-induced NO production pretreated with LPS for 24 hrs followed by compound addition and measured after 24 hrs by Griess reagent based analysis; format: functional, cell-based; settings: dose 0.5-5 µM
BV-2 [6] = experiment: Cytotoxicity against mouse BV-2 cells assessed as cell viability at 5 uM by MTT assay; format: toxicity, cell-based; settings: bv-2, 5 µM

Row | SMILES | Activity (BV-2 [1]) | Activity (BV-2 [2]) | Activity (BV-2 [3]) | Activity (BV-2 [4]) | Activity (BV-2 [5]) | Activity (BV-2 [6])
1 | COc1cc(-c2c[nH]c3ncc(-c4cnn(C5CCN(C)CC5)c4)cc23)c(F)cc1C | Active | Non-toxic | – | – | – | –
2 | COc1cccc(-c2c[nH]c3ncc(-c4cnn(C5CCNCC5)c4)cc23)c1 | – | – | Toxic | Active | Dose-dependent-effect | Non-toxic
3 | Clc1cc(Cl)cc(-c2c[nH]c3ncc(-c4cnn(C5CCNCC5)c4)cc23)c1 | Active | Non-toxic | – | – | – | –
4 | COc1cccc(-c2c[nH]c3ncc(-c4cnn(C5CCN(C)CC5)c4)cc23)c1 | – | – | Toxic | Active | Dose-dependent-effect | Non-toxic
5 | Fc1cccc(-c2c[nH]c3ncc(-c4cnn(C5CCNCC5)c4)cc23)c1 | – | – | Toxic | Active; Compound Showed Most Pronounced Effect Compared With Other Tested Compounds | Dose-dependent-effect | Non-toxic
6 | CN1CCC(n2cc(-c3cnc4[nH]cc(-c5cc(Cl)cc(Cl)c5)c4c3)cn2)CC1 | Active | Non-toxic | – | – | – | –
7 | COc1cc(-c2c[nH]c3ncc(-c4cnn(C5CCNCC5)c4)cc23)c(F)cc1C | Active | Non-toxic | – | – | – | –
8 | CN1CCC(n2cc(-c3cnc4[nH]cc(-c5cccc(F)c5)c4c3)cn2)CC1 | – | – | Toxic | Active; Compound Showed Most Pronounced Effect Compared With Other Tested Compounds | Dose-dependent-effect | Non-toxic
